Here are results for seven compounds from article PMC6133161, “Thiazoles with cyclopropyl fragment as antifungal, anticonvulsant, and anti-Toxoplasma gondii agents: synthesis, toxicity evaluation, and molecular docking study” (Medicinal Chemistry Research, 2018).

In general, MFC refers to the lowest tested concentration that kills the fungus rather than only halting it. The MIC is the smallest concentration in the dilution series that meets the test's criterion for growth inhibition. Broadly, the melting point is the temperature, or range, at which the solid turns liquid.

Values after ≈ are worked out from the molar mass of the structure shown. Where two headings read alike, the source gives them in different places.

The test system of data set [1] is Candida albicans ATCC 2091. Description: Broth microdilution MIC/MFC, reference strain. In kind it is cell-based. To be noted: C. albicans ATCC 2091. From the text: (§1) The examined compounds 3a–3j were screened in vitro for antibacterial and antifungal activities using the broth microdilution method according to European Committee on Antimicrobial Susceptibility Testing (EUCAST) (EUCAST [2003]) and Clinical and Laboratory Standards Institute guidelines (CLSI [2012]) against reference strains of microorganisms from American Type Culture Collection (ATCC), including fungi belonging to yeasts (Candida albicans ATCC 2091, Candida albicans ATCC 10231, Candida parapsilosis ATCC 22019 and Candida krusei ATCC 14243).
(§2) In the study of antifungal activity of the compounds 3a–3j, 15 clinical strains of different species of yeasts from Candida species, namely C. albicans, C. dubliniensis C. famata, C. inconspicua, C. krusei, C. tropicalis, C. glabrata, C. lambica, C. kefyr, C. lusitaniae, C. parapsilosis, C. guilliermondii, C. lusitaniae, C. pulcherrima and C. sake were also used. These fungi were isolated by the author (from Department of Pharmaceutical Microbiology of Medical University in Lublin, Poland) from different clinical materials, e.g., from upper respiratory tract of hospitalized patients including cancer patients (i.e., with non-small cell lung cancer or hematological malignancies). Some patients were after pre-operative or post-operative chemotherapy (treated with etoposide or cis-platin given in doses according to the standard procedures), patients with chronic hepatitis C (undergoing peginterferon and ribavirin therapy or without antiviral therapy), patients with diabetes, elderly people, aged of 65 years old or older, staying in close population, such as a care centre and people staying outside the home care. The Ethical Committee of the Medical University of Lublin approved the study protocol (No. KE-0254/75/2011). The isolates were identified by standard diagnostic methods—biochemical microtest, e.g., API 20C AUX, ID 32C, API Candida (bioMérieux) on the basis of assimilation of various substrates. All the used microbial cultures were first subcultured on nutrient agar or Sabouraud agar for bacteria and fungi, respectively. The RPMI 1640 with MOPS (for fungi) were inoculated with the suspensions of fungal species. Microbial suspensions were prepared in sterile saline (0.85% NaCl) with an optical density of 0.5 McFarland standard scale (Wiegand et al. [2008]). Samples containing examined compounds were dissolved in dimethyl sulfoxide (DMSO). Furthermore, fungal suspensions were put onto Petri dishes with solid media containing 2 mg/ml of the tested compounds followed incubation under appropriate conditions. The inhibition of microbial growth was judged by comparison with a control culture prepared without any sample tested. Nystatin (Sigma) was used as a reference antifungal compound. Subsequently MIC minimal inhibitory concentration (MIC) of the compounds was examined by the microdilution broth method, using their two-fold dilutions in RPMI 1640 broth with MOPS prepared in 96-well polystyrene plates. Final concentrations of the compounds ranged from 1000 to 0.0038 µg/ml. Microbial suspensions were prepared in sterile saline with an optical density of 0.5 McFarland standard. Next fungal suspension was added per each well containing broth and various concentrations of the examined compounds. After incubation, the MIC was assessed spectrophotometric as the lowest concentration of the samples showing complete fungal growth inhibition. Appropriate DMSO, growth and sterile controls were carried out. The medium with no tested substances was used as a control (Wiegand et al. [2008]). The minimal fungicidal concentration (MFC) are defined as the lowest concentration of the compounds that is required to kill a particular fungal species. MFC was determined by removing the culture using for MIC determinations from each well and spotting onto appropriate agar medium. The plates were incubated. The lowest compounds concentration with no visible growth observed was assessed as a fungicidal concentration. […]
For orientation: In broth dilution the organism is exposed to a series of concentrations in liquid medium.

The subject of data set [2] is Candida krusei ATCC 14243. The experiment in a line: Broth microdilution MIC/MFC, reference strain. Particulars: C. krusei ATCC 14243. Format: cell-based.
Source text: as §1, §2

Data set [3] has as its system Candida parapsilosis ATCC 22019. Description: Broth microdilution MIC/MFC, reference strain. To be noted: C. parapsilosis ATCC 22019. Format: cell-based.
Source text: as §1, §2

In data set [4] the test system is Candida albicans ATCC 10231. Description: Broth microdilution MIC/MFC, reference strain. Format: cell-based. To be noted: C. albicans ATCC 10231.
Source text: as §1, §2

Where [5] appears, read: Candida albicans, ATCC2091, read-out: MFC.
[6] abbreviates: Candida albicans, ATCC2091, read-out: MIC.
The mark [7] stands for this setting: Pichia kudriavzevii, ATCC14243, read-out: MFC.
The mark [8] stands for this setting: Pichia kudriavzevii, ATCC14243, read-out: MIC.
[9] abbreviates: Lodderomyces parapsilosis, ATCC22019, read-out: MFC.
The mark [10] stands for this setting: Lodderomyces parapsilosis, ATCC22019, read-out: MIC.
Setting [11] is: Candida albicans, ATCC10231, read-out: MFC.
Setting [12] is: Candida albicans, ATCC10231, read-out: MIC.

For `Fc1ccc(-c2csc(N/N=C/C3CC3)n2)cc1` [Compound 3a, (E)-2-(2-(Cyclopropylmethylene)hydrazinyl)-4-(4-fluorophenyl)thiazole], the MFC turned out to be 3.91 µg/mL (≈ 15 µM) in data set [1] (setting [5]), 15.6 µg/mL (≈ 59.8 µM) in data set [2] (setting [7]), 3.91 µg/mL (≈ 15 µM) in data set [3] (setting [9]) and 15.6 µg/mL (≈ 59.8 µM) in data set [4] (setting [11]). Also, the MIC stood at 1.95 µg/mL (≈ 7.46 µM) in data set [1] (setting [6]), 3.91 µg/mL (≈ 15 µM) in data set [2] (setting [8]), 1.95 µg/mL (≈ 7.46 µM) in data set [3] (setting [10]) and 1.95 µg/mL (≈ 7.46 µM) in data set [4] (setting [12]).

Take `Brc1ccc(-c2csc(N/N=C/C3CC3)n2)cc1` [Compound 3b, (E)-4-(4-Bromophenyl)-2-(2-(cyclopropylmethylene)hydrazinyl)thiazole]: the melting point was in the range of 165 to 167 °C. For the same compound, the minimum fungicidal concentration (MFC) in data set [1] (setting [5]) was 0.98 µg/mL (≈ 3.04 µM). For the same compound, the minimum inhibitory concentration (MIC) in data set [1] (setting [6]) was found to be 0.12 µg/mL (≈ 0.372 µM). Moreover, the minimum fungicidal concentration (MFC) in data set [2] (setting [7]) came out at 0.98 µg/mL (≈ 3.04 µM). Besides, the MIC in data set [2] (setting [8]) stood at 0.24 µg/mL (≈ 0.745 µM). In addition, in data set [3] (setting [9]), the minimum fungicidal concentration (MFC) stood at 1.95 µg/mL (≈ 6.05 µM). The MIC in data set [3] (setting [10]) was 0.48 µg/mL (≈ 1.49 µM). Moreover, the minimum fungicidal concentration (MFC) in data set [4] (setting [11]) turned out to be 0.24 µg/mL (≈ 0.745 µM). Moreover, the MIC in data set [4] (setting [12]) amounted to 0.06 µg/mL (≈ 0.186 µM).

With `Cc1ccc(-c2csc(N/N=C/C3CC3)n2)cc1` [Compound 3d, (E)-2-(2-(Cyclopropylmethylene)hydrazinyl)-4-p-tolylthiazole], the minimum fungicidal concentration (MFC) in data set [1] (setting [5]) came out at 1.95 µg/mL (≈ 7.58 µM); in data set [2] (setting [7]), 0.48 µg/mL (≈ 1.87 µM); in data set [3] (setting [9]) it was 0.98 µg/mL (≈ 3.81 µM); in data set [4] (setting [11]) it was 0.24 µg/mL (≈ 0.933 µM). For the same compound, the MIC in data set [1] (setting [6]) amounted to 0.12 µg/mL (≈ 0.466 µM); in data set [2] (setting [8]), 0.06 µg/mL (≈ 0.233 µM); in data set [3] (setting [10]) it was 0.24 µg/mL (≈ 0.933 µM); in data set [4] (setting [12]), 0.06 µg/mL (≈ 0.233 µM).

For the compound `Fc1ccc(-c2csc(N/N=C/C3CC3)n2)c(F)c1` [Compound 3g, (E)-2-(2-(Cyclopropylmethylene)hydrazinyl)-4-(2,4-difluorophenyl)thiazole], the minimum fungicidal concentration (MFC) in data set [1] (setting [5]) came out at 1.95 µg/mL (≈ 6.98 µM); in data set [2] (setting [7]), 31.2 µg/mL (≈ 112 µM); in data set [3] (setting [9]) it was 3.91 µg/mL (≈ 14 µM); in data set [4] (setting [11]), 0.98 µg/mL (≈ 3.51 µM). Further, the minimal inhibitory concentration (MIC) stood at 1.95 µg/mL (≈ 6.98 µM) in data set [1] (setting [6]), 7.81 µg/mL (≈ 28 µM) in data set [2] (setting [8]), 3.91 µg/mL (≈ 14 µM) in data set [3] (setting [10]) and 0.48 µg/mL (≈ 1.72 µM) in data set [4] (setting [12]).

For the compound `N#Cc1ccc(-c2csc(N/N=C/C3CC3)n2)cc1` [Compound 3h, (E)-4-(2-(2-(Cyclopropylmethylene)hydrazinyl)thiazol-4-yl)benzonitrile], the minimal fungicidal concentration (MFC) in data set [1] (setting [5]) was determined as 3.91 µg/mL (≈ 14.6 µM); in data set [2] (setting [7]), 1.95 µg/mL (≈ 7.27 µM); in data set [3] (setting [9]) it was 3.91 µg/mL (≈ 14.6 µM); in data set [4] (setting [11]), 1.95 µg/mL (≈ 7.27 µM). For the same compound, the minimal inhibitory concentration (MIC) in data set [1] (setting [6]) stood at 1.95 µg/mL (≈ 7.27 µM); in data set [2] (setting [8]), 0.98 µg/mL (≈ 3.65 µM); in data set [3] (setting [10]) it was 3.91 µg/mL (≈ 14.6 µM); in data set [4] (setting [12]), 0.48 µg/mL (≈ 1.79 µM).

As to `O=[N+]([O-])c1ccc(-c2csc(N/N=C/C3CC3)n2)cc1` [Compound 3j, (E)-2-(2-(Cyclopropylmethylene)hydrazinyl)-4-(4-nitrophenyl)thiazole], the minimum fungicidal concentration (MFC) in data set [1] (setting [5]) stood at 7.81 µg/mL (≈ 27.1 µM); in data set [2] (setting [7]), 3.91 µg/mL (≈ 13.6 µM); in data set [3] (setting [9]), 31.2 µg/mL (≈ 108 µM); in data set [4] (setting [11]) it was 1.95 µg/mL (≈ 6.76 µM). Moreover, the minimum inhibitory concentration (MIC) in data set [1] (setting [6]) turned out to be 3.91 µg/mL (≈ 13.6 µM); in data set [2] (setting [8]), 0.98 µg/mL (≈ 3.4 µM); in data set [3] (setting [10]), 3.91 µg/mL (≈ 13.6 µM); in data set [4] (setting [12]), 0.48 µg/mL (≈ 1.66 µM).

`C[C@@H]1[C@H](O)[C@@H](C)/C=C/C=C/CC/C=C/C=C/C=C/C=C/C(O[C@H]2O[C@H](C)[C@@H](O)[C@H](N)[C@@H]2O)CC2O[C@](O)(CC(O)C(O)CCC(O)CC(O)CC(O)CC(=O)O[C@H]1C)CC(O)C2C(=O)O` (stereo partly shown) [Nystatin, reference compound]: the minimal fungicidal concentration (MFC) in data set [1] stood at 0.24 µg/mL (≈ 0.259 µM); in data set [2], 0.24 µg/mL (≈ 0.259 µM); in data set [3], 0.48 µg/mL (≈ 0.518 µM); in data set [4] it was 0.48 µg/mL (≈ 0.518 µM). The MFC/MIC is 1 in data set [1], 1 in data set [2], 2 in data set [3] and 1 in data set [4]. Besides, the MIC was 0.24 µg/mL (≈ 0.259 µM) in data set [1], 0.24 µg/mL (≈ 0.259 µM) in data set [2], 0.24 µg/mL (≈ 0.259 µM) in data set [3] and 0.48 µg/mL (≈ 0.518 µM) in data set [4].
